The target of data set [1] is anthrax edema factor (EF) (Bacillus anthracis, UniProt P40136). Nature of the data set: cell-based.
Another data set in a line: physchem. Particulars: organic solvent or mixture.
Data set [2] deals with bacterial adhesion to Caco-2 cells. It counts as cell-based.
Data set [3] deals with ETEC H10507 or other enteric bacteria. It counts as cell-based, E. coli and Salmonella.
Data set [4] deals with Enterotoxigenic E. coli (ETEC). The note with it: mouse, in vivo.
A further data set relates to Cholera toxin (CT). Particulars: mouse, in vivo.
The test system of data set [5] is bacterial adhesion to HeLa cells. The format is cell-based.
In the next data set the test system is cholera toxin. It counts as cell-based, Vibrio cholerae.

25 compounds from patent US8003692B2 (priority 2007, dated 2011) can be followed below.

pIC50: −log10 of the molar value. Values joined by “and” are separate entries in the source; they are usually repeats but may differ in a detail not shown here. Equal values may be shown once. “Also recorded” adds a separate entry of the source. Read-outs that look alike come from different tables or passages of the source.

Chain of anthrax edema factor (EF) (P40136 whole entry, looked up): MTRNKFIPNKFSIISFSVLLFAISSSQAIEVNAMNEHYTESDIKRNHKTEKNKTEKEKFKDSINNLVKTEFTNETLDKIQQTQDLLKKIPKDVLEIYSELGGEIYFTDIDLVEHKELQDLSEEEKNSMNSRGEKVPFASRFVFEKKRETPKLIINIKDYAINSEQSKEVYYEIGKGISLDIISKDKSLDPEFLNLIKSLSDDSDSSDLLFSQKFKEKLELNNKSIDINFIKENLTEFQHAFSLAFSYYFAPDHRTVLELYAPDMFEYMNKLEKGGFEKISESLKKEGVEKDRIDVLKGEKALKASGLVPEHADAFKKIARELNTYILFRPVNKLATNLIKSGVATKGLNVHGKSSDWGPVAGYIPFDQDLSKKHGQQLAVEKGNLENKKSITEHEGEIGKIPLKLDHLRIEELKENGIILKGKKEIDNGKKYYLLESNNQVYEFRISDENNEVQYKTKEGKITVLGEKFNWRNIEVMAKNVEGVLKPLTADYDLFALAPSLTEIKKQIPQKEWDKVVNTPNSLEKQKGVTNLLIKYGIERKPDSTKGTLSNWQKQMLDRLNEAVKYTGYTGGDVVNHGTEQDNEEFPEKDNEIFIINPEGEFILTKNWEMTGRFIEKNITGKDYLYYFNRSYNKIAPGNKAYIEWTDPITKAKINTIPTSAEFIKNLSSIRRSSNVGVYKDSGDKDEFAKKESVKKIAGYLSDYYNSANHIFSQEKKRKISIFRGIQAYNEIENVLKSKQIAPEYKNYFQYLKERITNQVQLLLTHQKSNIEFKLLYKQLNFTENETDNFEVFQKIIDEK

Consider `CN(C)c1cccc(NC(=O)c2cccc3c2C(=O)c2ccccc2-3)c1` [FIV-65, 9-Oxo-9H-fluorene-1-carboxylic acid (3-dimethylamino-phenyl)-amide], for which, in data set [1] (IC50), the pIC50 was 5.82.

`O=C(O)c1cccc(NC(=O)c2cccc3c2C(=O)c2ccccc2-3)c1O` [FIV-39, 2-Hydroxy-3-[(9-oxo-9H-fluorene-1-carbonyl)-amino]-benzoic acid] had a pIC50 in data set [1] (IC50) of 5.25.

On to `O=C(O)c1cccc(NC(=O)c2cccc3c2C(=O)c2ccccc2-3)c1` [FIV-50, 3-[(9-Oxo-9H-fluorene-1-carbonyl)-amino]-benzoic acid], for which the solubility in “physchem” is no less than 100 mM. Moreover, in the data set on RAW 264.7 cells, the “cytotoxicity in LDH assay (in words)” value was “no obvious cytotoxic effect”. Also, the “effect on bacterial adherence (in words)” value is listed as “no reduction in adherence” in data set [2] and “Reduction in adherence was only observed in ETEC” in data set [5]. Moreover, the “effect on bacterial growth rate (in words)” value in data set [3] is given as “no effect on growth”. In data set [1], the “inhibition of EF / Edema Toxin induced cAMP production (in words)” value is listed as “extremely effective; also recorded: more active than PGE2-imidazole”. Moreover, the pIC50 in data set [1] (IC50) was 5.05 to 5.77; in data set [1] (IC50 values), 5.30 to 5.77; in data set [1] (IC50 values, mean), 5.32; in [1] (IC50 values, range), 4.91 to 6.54. Besides, the “differences in the number of bacteria recovered” value in data set [4] worked out at 3 logs. Moreover, the “Reduction of fluid accumulation” value with Cholera toxin (CT) was “Yes”. The Toxicity entry with Cholera toxin (CT) is given as “No”.

Regarding `N=C(N)c1cccc(NC(=O)c2cccc3c2C(=O)c2ccccc2-3)c1` [FIV-68, 9-Oxo-9H-fluorene-1-carboxylic acid (3-carbamimidoyl-phenyl)-amide], in data set [1] (IC50), the pIC50 was 5.57.

`Cc1c(NC(=O)c2cccc3c2C(=O)c2ccccc2-3)cccc1C(=O)O` [FIV-55, 2-Methyl-3-[(9-oxo-9H-fluorene-1-carbonyl)-amino]-benzoic acid]: the pIC50 in data set [1] (IC50) is 4.94.

Regarding `COc1cccc(C2=CC(=O)CCC2)n1` [FI-9, 3-(6-Methoxy-pyridin-2-yl)-cyclohex-2-enone], the “inhibition of EF / Edema Toxin induced cAMP production (in words)” value in [1] is “not active”.

On to `O=C(O)c1ccc(/N=C/c2c3ccccc3cc3ccccc23)cc1O` [FIII-1, 4-[(Anthracen-9-ylmethylene)-amino]-2-hydroxy-benzoic acid], for which the “inhibition of EF / Edema Toxin induced cAMP production (in words)” value in [1] is recorded as “more active than PGE2-imidazole”. For the same compound, in data set [1] (read-out: IC50 values), the pIC50 is 5.05.

Consider `COc1cccc([C@H]2Nc3ccc(C(=O)O)cc3[C@@H]3C=CC[C@H]23)c1` (stereo in doubt) [FII-1, 4-(3-methoxy-phenyl)-3a,4,5,9b-tetrahydro-3H-cyclopenta[c]quinoline-8-carboxylic acid], for which the “cytotoxicity in LDH assay (in words)” value in the data set on RAW 264.7 cells is on record as “no obvious cytotoxic effect”. Moreover, the “inhibition of EF / Edema Toxin induced cAMP production (in words)” value in data set [1] was “effective; also recorded: more active than PGE2-imidazole”. In addition, the pIC50 in [1] (IC50 values) was 5.15 to 5.74. Further, in the data set on Cholera toxin (CT), the “Reduction of fluid accumulation” value was “No*”, the Toxicity entry is “No”, the “accumulation of intestinal fluid after experimental infection with CT (in words)” value is “did not cause a significant reduction in fluid accumulation” and the “toxic effects in the animals (in words)” value was “Toxic effects were observed”.

`COc1cccc(C2=C(C)C(=O)CC2)n1` [FI-21, 3-(6-Methoxy-pyridin-2-yl)-2-methyl-cyclopent-2-enone]: the “inhibition of EF / Edema Toxin induced cAMP production (in words)” value in data set [1] is “good activity”. Moreover, in [1] (read-out: IC-50), the pIC50 was 4.52.

Turning to `O=C1C=C(c2ccc3[nH]ccc3c2)CCC1` [FI-17, 3-(1H-Indol-5-yl)-cyclohex-2-enone], in data set [1], the “inhibition of EF / Edema Toxin induced cAMP production (in words)” value is listed as “comparable activity to the best compounds”. Further, in [1] (read-out: IC-50), the pIC50 is 4.25.

Consider `COc1cccc(C2=CC(=O)CC(c3ccc(F)cc3)C2)c1` (centres unmarked) [FI-2, 5-(4-Fluoro-phenyl)-3-(3-methoxy-phenyl)-cyclohex-2-enone], for which, in the data set with RAW 264.7 cells, the “cytotoxicity in LDH assay (in words)” value was “minimal cytotoxic effect”. Further, in data set [1], the “inhibition of EF / Edema Toxin induced cAMP production (in words)” value is given as “cAMP inhibitory activity”. The pIC50 in data set [1] (IC50) is 4.55. For the same compound, in [1] (Selected assay results (IC50)), the pIC50 was 4.67 and 4.56. The “toxic effects in the animals (in words)” value in the data set with Cholera toxin (CT) (Swiss-Webster) was “number of animals surviving the full 6 hour of the incubation was reduced by half”. Moreover, in the data set with Cholera toxin (CT), the “Reduction of fluid accumulation” value is given as “Yes”, the Toxicity entry was “No” and the “toxic effects in the animals (in words)” value is “highly toxic”.

As for `COc1cccc(C2=CC(=O)CC(c3ccco3)C2)c1` (centres unmarked) [FI-1, 5-Furan-2-yl-3-(3-methoxy-phenyl)-cyclohex-2-enone], the “inhibition of cholera toxin induced cAMP (in words)” value in the data set with cholera toxin was “did not inhibit”. Moreover, the “inhibition of EF / Edema Toxin induced cAMP production (in words)” value in data set [1] was “did not inhibit”. This compound showed a pIC50 in [1] (IC50) of 4.70. In addition, the pIC50 in data set [1] (Selected assay results (IC50)) was 4.69 and < 4.00. In addition, the “toxic effects in the animals (in words)” value in the data set on Cholera toxin (CT) (Swiss-Webster) is “toxic effects similar to FI-2”. In addition, in the data set on Cholera toxin (CT), the “Reduction of fluid accumulation” value was “No”, the Toxicity entry was “Yes” and the “accumulation of intestinal fluid after experimental infection with CT (in words)” value is “did not cause a reduction in fluid accumulation”.

In turn, `COC(=O)c1cccc(NC(=O)c2cccc3c2C(=O)c2ccccc2-3)c1C` [FIV-54, 2-Methyl-3-[(9-oxo-9H-fluorene-1-carbonyl)-amino]-benzoic acid methyl ester] showed a pIC50 in [1] (IC50) of 4.89.

The compound `O=C(Nc1ccccc1)c1cccc2c1C(=O)c1ccccc1-2` [FIV-61, 9-Oxo-9H-fluorene-1-carboxylic acid phenylamide] gave a pIC50 in data set [1] (IC50) of 4.54.

Take `COc1cccc(C2=C(C)C(=O)CC2)n1` [FI-3, 3-(6-Methoxy-pyridin-2-yl)-2-methyl-cyclopent-2-enone]: the “inhibition of cholera toxin induced cAMP (in words)” value with cholera toxin is on record as “most consistently been active; also recorded: inhibits cholera toxin induced cAMP, but not quite as well as PGE2-imidazole”. The “inhibition of EF / Edema Toxin induced cAMP production (in words)” value in [1] is “most consistently been active; also recorded: dose-dependent activity and reduced extracellular cAMP accumulation”. For the same compound, the pIC50 is 4.41 and 4.19 and 4.95 and 4.53 in [1] (Selected assay results (IC50)); 4.52 in data set [1] (read-out: IC50); 4.53 in data set [1] (read-out: Selected assay results (IC50)). Further, the “toxic effects in the animals (in words)” value is “several animals treated with the CT+FI-3 mixture died” in the data set with Cholera toxin (CT) (Swiss-Webster); “displayed edema, blood and fluid accumulation” with Cholera toxin (CT). In the data set with Cholera toxin (CT), the “Reduction of fluid accumulation” value is “Yes”.

Regarding `O=C(O)c1cc(NC(=O)c2cccc3c2C(=O)c2ccccc2-3)ccc1O` [FIV-35, 2-Hydroxy-5-[(9-oxo-9H-fluorene-1-carbonyl)-amino]-benzoic acid], the pIC50 in data set [1] (IC50) was 5.21.

For `O=C(Nc1ccc(F)c(Cl)c1)c1cccc2c1C(=O)c1ccccc1-2` [FIV-60, 9-Oxo-9H-fluorene-1-carboxylic acid (3-chloro-4-fluoro-phenyl)-amide], the pIC50 in data set [1] (IC50) is 5.42.

On to `COc1ccccc1C1=CC(=O)CCC1` [FI-27, 3-(2-Methoxy-phenyl)-cyclohex-2-enone], for which the pIC50 in data set [1] (read-out: IC-50) was 4.46.

For `O=C1C=C(c2ccc3c(c2)OCO3)CCC1` [FI-18, 3-Benzo[1,3]dioxol-5-yl-cyclohex-2-enone], the pIC50 in data set [1] (read-out: IC-50) was 4.28.

Turning to `COc1ccc(C2=C(C)C(=O)CC2)cn1` [FI-14, 3-(6-Methoxy-pyridin-3-yl)-2-methyl-cyclopent-2-enone], in data set [1], the “inhibition of EF / Edema Toxin induced cAMP production (in words)” value was “good activity”. The pIC50 in [1] (read-out: IC-50) was 4.62.

As for `COC(=O)c1ccc(OC)c(NC(=O)c2cccc3c2C(=O)c2ccccc2-3)c1` [FIV-58, 4-Methoxy-3-[(9-oxo-9H-fluorene-1-carbonyl)-amino]-benzoic acid methyl ester], in [1] (IC50), the pIC50 was 5.14.

`N#Cc1ccc(NC(=O)c2cccc3c2C(=O)c2ccccc2-3)c(Cl)c1` [FIV-70, 9-Oxo-9H-fluorene-1-carboxylic acid (2-chloro-4-cyano-phenyl)-amide] showed a pIC50 in data set [1] (IC50) of 4.30.

In data set [1] (IC50), `O=C(Nc1cccc(OC(F)(F)F)c1)c1cccc2c1C(=O)c1ccccc1-2` [FIV-67, 9-Oxo-9H-fluorene-1-carboxylic acid (3-trifluoromethoxy-phenyl)-amide] gave a pIC50 of 5.16.

In the case of `COc1ccc(C(=O)O)cc1NC(=O)c1cccc2c1C(=O)c1ccccc1-2` [FIV-1, 4-Methoxy-3-[(9-oxo-9H-fluorene-1-carbonyl)-amino]-benzoic acid], in data set [1] (IC50), the pIC50 is 5.24.

Take `COc1cccc(C2=CC(=O)CCC2)c1` [FI-15, 3-(3-Methoxy-phenyl)-cyclohex-2-enone]: the pIC50 in data set [1] (read-out: IC-50) is 4.52.

In general, solubility refers to the concentration that dissolves in the medium under given conditions.
